Measured values: patent US20110117168A1, “METHODS AND COMPOSITIONS FOR SOFT TISSUE REPAIR” (AFFINERGY, INC., priority 2009, published 2011)
Ends that are not written are not given here.

Columns and labels:
[1] = system: MSCs; test: Adipocyte differentiation of peptide-captured MSCs (Oil Red O); assay type: cell-based, human; details: 21 days in adipocyte differentiation medium
Protocol: Adipocyte differentiation. After capture of MSCs using cell binding peptide SEQ ID NO: 4 with the […] magnetic system according to Example 6, the ability of the captured cells to differentiate into an adipocyte lineage was examined. The MSCs present in the […] column eluants (see Example 6) were cultured for 21 days in complete medium (DMEM, 10% FBS, 100 units/mL penicillin, 100 μg/mL streptomycin, and 2 mM glutamine) supplemented with 0.5 mM isobutyl methylxanthine, 1 μM dexamethasone, 10 μM insulin, 200 μM indomethacin, and 1% antibiotic/antimycotic. Following the 21 day incubation, the cells were fixed in 4% paraformaldehyde in PBS for 15 minutes, washed in 60% isopropanol for 5 minutes, and stained with Oil Red 0 (SIGMA) for 10 minutes to determine the extent of adipogenesis (see FIG. 26, panels A (undifferentiated MSCs) and panel B (adipocyte differentiated MSCs)). The image of the adipose differentiated cells (FIG. 26, panel B) contains a larger magnification inset where the lipid vacuoles are clearly visible.

[2] = system: MSCs; test: Capture of MSCs from bone marrow aspirate, colony forming units; assay type: cell-based, human; details: biotinylated peptide, streptavidin-coated MILTENYI beads; compared to CD105 and MSCA-1 antibody beads
Protocol: This experiment was performed to examine the ability of cell binding peptide SEQ ID NO: 4 to capture MSCs directly from bone marrow aspirate in comparison to two separate antibodies against the CD105 I antigen (CD105) and the MSCA-1 stem cell antigen (MSCA-1). This experiment employed biotinylated peptides with streptavidin-coated […] magnetic beads. The peptides were biotinylated as described herein at Example 2. […] For the antibody capture experiment, magnetic beads having covalently attached CD105 or MSCA-1 antibody were employed ([…]). Prior to incubation with the peptides and antibodies, bone marrow aspirate (BMA) was mixed with 5 volumes of 10 mM ammonium chloride for 1-2 min at room temperature to lyse red blood cells. The lysate was centrifuged for 5 min at 300×g and the supernatant discarded. The cell pellet was washed with wash buffer (PBS+0.5% bovine serum albumin+0.5 mM EDTA) and cells were resuspended in […] peptide at a concentration of 10^8 per mL. For peptide binding studies, the cell suspension was incubated with the biotinylated peptides for 30 min at 4° C. to allow for binding. After incubation, cells were spun down at 300×g for 5 min, and peptide solution was aspirated. Cells were then rinsed twice with wash buffer, with centrifugation between washes. […] Colony forming units (CFUs) were counted after 14 days in culture. […]

[3] = system: human MSCs; test: Capture of cultured MSCs with peptide on […] Streptavidin microbeads in LS columns; assay type: cell-based; details: 160,000 cultured human MSCs, peptide 20 μM on Streptavidin microbeads, LS column
Protocol: In this experiment the ability of the biotinylated cell binding peptide SEQ ID NO: 4 to capture human MSCs from a homogeneous cultured cell population was examined. The cell binding peptide SEQ ID NO: 4 was biotinylated as described herein at Example 2. The cell binding peptide SEQ ID NO: 4, and a non-binding control peptide, were added to separate 300 μl volumes of […] BIOTEC Streptavidin microbeads at a concentration of 20 μM. These beads are made from iron filings, coated with a dextran coating which is functionalized with streptavidin moieties. Peptide was incubated with beads for 45 min on ice. The 300 μl of peptide coated microbeads were added to pre-equilibrated LS columns outside of the magnetic field to evenly distribute the magnetic beads throughout the columns. Columns were then placed into a magnetic field, and excess peptide was washed away with buffer while retaining the peptide coated microbeads. Cultured and expanded human MSCs from bone marrow aspirate (160,000 cells; LONZA) were added to each LS column and allowed to pass through by gravity flow. Flowthrough was collected and cycled through the columns 5 times, after which the columns were washed with 5 ml buffer. […] The collected flowthrough with 5 ml wash and eluted cells were spun down, resuspended in a smaller volume, and counted by hemacytometer (see FIG. 17). […]

[4] = system: MSCs; test: Chondrocyte differentiation of peptide-captured MSCs (aggrecan immunostaining); assay type: cell-based, human; details: 24 days in CHONDRODIFF medium
Protocol: Chondrocyte differentiation. To examine chondrocyte differentiation, the MSCs present in the […] column eluants (see Example 6) were pelleted by centrifugation at 150×g for 5 minutes. Cells were washed once with 1 ml MACS NH CHONDRODIFF Medium without disturbing the pellet. Cells were spun again and 1 mL CHONDRODIFF Medium was added to each pellet. Every third day, medium was aspirated and replaced with fresh pre-warmed medium. After 24 days in culture, cells exposed to CHONDRODIFF medium formed cartilage plugs or nodules, whereas control cells formed only loose or small nodules. Cells were washed once with PBS and fixed in neutral buffered formalin overnight. Sections were embedded in paraffin and sectioned at 5 microns. Sections were examined by hemotoxylin and eosin staining (data not shown). Sections were further examined by immunostaining for aggrecan, a major structural component of cartilage. In FIG. 27, sections from the periphery (panels A and B) or center (panels C and D) were incubated with an antibody against aggrecan (ABCAM) (panels B and D) or with secondary detection reagents only as a control (panels A and C), then counterstained with DAPI to reveal cell nuclei. […] Control images of captured cells grown in the absence of differentiation medium could not be taken due to the small and loose nature of nodules.

[5] = system: MSCs; test: Osteoblast differentiation of peptide-captured MSCs (Alizarin Red S); assay type: cell-based, human; details: 14 days in osteoblast differentiation medium
Protocol: Osteoblast differentiation. For osteogenic differentiation, the MSCs present in the […] column eluants (see Example 6) were cultured for 14 days in complete medium supplemented with 0.1 μM dexamethasone, 50 μM ascorbate-2-phosphate, 10 mM β-glycerophosphate, and 1% antibiotic/antimycotic. Calcium mineralization was measured by Alizarin Red S (SIGMA) staining to reveal mineralizing osteoblasts (see FIG. 26, panel C (undifferentiated MSCs) and panel D (osteoblast differentiated MSCs)).

For “SSFWDVCQGDGTCYGGGSR (SSFWDVCQGDGTCYGGGSRGSSG-{K(biotin)}; cysteine pairing not given here) [SEQ ID NO: 4, tested biotinylated with GSSGK(biotin) or other spacer at the C-terminus]”, the “adipocyte differentiation of captured MSCs” value [1] was “adipogenesis pathway remains intact”, the “MSC capture from bone marrow aspirate (CFUs after 14 days in culture)” value [2] was “as efficient as capture by either of the CD105 or MSCA-1 antibodies” and the “capture of MSCs” value [3] was “approximately 70%”. The “chondrocyte differentiation of captured MSCs (aggrecan)” value [4] was “aggrecan could be detected” and the “osteoblast differentiation of captured MSCs” value [5] was “osteogenic pathway remains intact”.
